Source: US20150157739A1, “Imidazo[2,1]thiazol-3-one derivatives” (Hoffmann-La Roche Inc., priority 2012, published 2015)

Key:
[1] = target: T1, aggregated recombinant human-microtubule associated protein Tau (Homo sapiens, UniProt P10636); test: Thiazin-red R displacement fluorescence assay on aggregated Tau; type: binding; conditions: displacement of Thiazin-red R from aggregated Tau; compound 0.3 nM to 10000 nM; 30 min room temperature; Ex 531 nm/Em 595 nm
T1 construct: Recombinant human-microtubule associated protein Tau purified from E. coli is aggregated at a concentration of 5 μM with Arachidonic Acid (100 μM) in Tris 10 mM pH8, 24 h at 37° C
T1 sequence (P10636 whole entry): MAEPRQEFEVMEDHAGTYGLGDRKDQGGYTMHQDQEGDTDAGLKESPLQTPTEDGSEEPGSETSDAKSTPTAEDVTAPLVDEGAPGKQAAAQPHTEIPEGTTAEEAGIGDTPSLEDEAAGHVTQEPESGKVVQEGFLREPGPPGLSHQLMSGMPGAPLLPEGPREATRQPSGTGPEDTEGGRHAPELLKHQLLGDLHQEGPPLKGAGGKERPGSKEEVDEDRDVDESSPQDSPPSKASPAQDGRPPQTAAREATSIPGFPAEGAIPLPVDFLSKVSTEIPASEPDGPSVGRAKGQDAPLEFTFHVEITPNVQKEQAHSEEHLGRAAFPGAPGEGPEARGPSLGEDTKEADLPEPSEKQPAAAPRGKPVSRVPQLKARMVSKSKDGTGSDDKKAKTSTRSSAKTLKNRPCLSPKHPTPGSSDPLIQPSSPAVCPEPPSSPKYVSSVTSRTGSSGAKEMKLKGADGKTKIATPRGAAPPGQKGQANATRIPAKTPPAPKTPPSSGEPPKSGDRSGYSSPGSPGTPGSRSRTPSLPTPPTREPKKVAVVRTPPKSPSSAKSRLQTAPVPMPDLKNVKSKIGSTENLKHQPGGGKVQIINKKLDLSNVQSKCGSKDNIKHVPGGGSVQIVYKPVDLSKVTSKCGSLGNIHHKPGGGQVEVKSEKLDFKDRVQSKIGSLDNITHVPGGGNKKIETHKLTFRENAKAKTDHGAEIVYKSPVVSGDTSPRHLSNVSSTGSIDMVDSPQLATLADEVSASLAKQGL

[2] = target: T2, aggregated synthetic Aβ40 (Homo sapiens, UniProt P05067); test: Thiazin-red R displacement fluorescence assay on aggregated A-beta; type: binding; conditions: displacement of Thiazin-red R from aggregated Aβ40; compound 0.3 nM to 10000 nM; 30 min room temperature; Ex 531 nm/Em 595 nm
T2 construct: Synthetic Aβ40 is aggregated at a concentration of 50 μM
T2 sequence (P05067 672-711 limits assumed): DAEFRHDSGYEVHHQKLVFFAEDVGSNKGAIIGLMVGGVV

Row | IC50 [1] [nM] | IC50 [2] [nM] | Structure (SMILES)
1 | 67 | 1940 | CCCOc1cc(/C=c2\sc3nc(-c4cncnc4)cn3c2=O)cc(Cl)c1O [Example 130, 2-[1-(3-Chloro-4-hydroxy-5-propoxy-phenyl)-meth-(Z)-ylidene]-6-pyrimidin-5-yl-imidazo[2,1-b]thiazol-3-one]
2 | 26 | 979 | CCCOc1cc(/C=c2\sc3nc(-c4ccsc4)cn3c2=O)cc(Cl)c1O [Example 131, 2-[1-(3-Chloro-4-hydroxy-5-propoxy-phenyl)-meth-(Z)-ylidene]-6-thiophen-3-yl-imidazo[2,1-b]thiazol-3-one]
3 | 41 | 718 | CCCOc1cc(/C=c2\sc3nc(-c4cccs4)cn3c2=O)cc(Cl)c1O [Example 132, 2-[1-(3-Chloro-4-hydroxy-5-propoxy-phenyl)-meth-(Z)-ylidene]-6-thiophen-2-yl-imidazo[2,1-b]thiazol-3-one]
4 | 2 | 133 | COc1cc(/C=c2\sc3nc(-c4ccc(C(=O)N5CC(F)C5)cc4)cn3c2=O)cc(Cl)c1O [Example 134, 2-[1-(3-Chloro-4-hydroxy-5-methoxy-phenyl)-meth-(Z)-ylidene]-6-[4-(3-fluoro-azetidine-1-carbonyl)-phenyl]-imidazo[2,1-b]thiazol-3-one]
5 | 30 | 293 | CCCOc1cc(/C=c2\sc3nc(-c4ccccn4)cn3c2=O)cc(Cl)c1O [Example 136, 2-[1-(3-Chloro-4-hydroxy-5-propoxy-phenyl)-meth-(Z)-ylidene]-6-pyridin-2-yl-imidazo[2,1-b]thiazol-3-one]
6 | 7 | 332 | COc1cc(/C=c2\sc3nc(-c4ccc(C(=O)N(C)CCCF)cc4)cn3c2=O)cc(Cl)c1O [Example 137]
7 | 14 | 898 | COc1cc(/C=c2\sc3nc(-c4ccc(C(=O)O)cc4)cn3c2=O)cc(F)c1O [Example 138, 4-{2-[1-(3-Fluoro-4-hydroxy-5-methoxy-phenyl)-meth-(Z)-ylidene]-3-oxo-2,3-dihydro-imidazo[2,1-b]thiazol-6-yl}-benzoic acid]
8 | 48 | 1010 | COc1cc(/C=c2\sc3nc(-c4ccc(C(=O)N(C)CCF)cc4)cn3c2=O)cc(F)c1O [Example 146]
9 | 41 | 448 | COc1cc(/C=c2\sc3nc(-c4ccc(C(=O)N(C)CCCF)cc4)cn3c2=O)cc(F)c1O [Example 147]
10 | 4 | 38 | COc1cc(/C=c2\sc3nc(-c4ccc(C(=O)OCCF)cc4)cn3c2=O)cc(Cl)c1O [Example 148, 4-{2-[1-(3-Chloro-4-hydroxy-5-methoxy-phenyl)-meth-(Z)-ylidene]-3-oxo-2,3-dihydro-imidazo[2,1-b]thiazol-6-yl}-benzoic acid 2-fluoro-ethyl ester]
11 | 2 | 168 | COc1cc(/C=c2\sc3nc(-c4ccc(C(=O)OCCCF)cc4)cn3c2=O)cc(Cl)c1O [Example 149, 4-{2-[1-(3-Chloro-4-hydroxy-5-methoxy-phenyl)-meth-(Z)-ylidene]-3-oxo-2,3-dihydro-imidazo[2,1-b]thiazol-6-yl}-benzoic acid 3-fluoro-propyl ester]
12 | 1.8 | 118 | COc1cc(/C=c2\sc3nc(-c4ccc(C(=O)NCCNC(=O)OC(C)(C)C)cc4)cn3c2=O)cc(Cl)c1O [Example 150, [2-(4-{2-[1-(3-Chloro-4-hydroxy-5-methoxy-phenyl)-meth-(Z)-ylidene]-3-oxo-2,3-dihydro-imidazo[2,1-b]thiazol-6-yl}-benzoylamino)-ethyl]-carbamic acid tert-butyl ester]
13 | 12 | 24 | COc1cc(/C=c2\sc3nc(-c4ccc(C(=O)NCCN)cc4)cn3c2=O)cc(Cl)c1O [Example 151, N-(2-Amino-ethyl)-4-{2-[1-(3-chloro-4-hydroxy-5-methoxy-phenyl)-meth-(Z)-ylidene]-3-oxo-2,3-dihydro-imidazo[2,1-b]thiazol-6-yl}-benzamide]
14 | 46 | 605 | Cc1cc(-c2cn3c(=O)/c(=C/c4cc(Cl)c(O)c(OCCCF)c4)sc3n2)cc(C)n1 [Example 153, 2-[1-[3-Chloro-5-(3-fluoro-propoxy)-4-hydroxy-phenyl]-meth-(Z)-ylidene]-6-(2,6-dimethyl-pyridin-4-yl)-imidazo[2,1-b]thiazol-3-one]

Row | Structure (SMILES) | IC50 [1] [nM] | IC50 [2] [nM]
15 | COc1cc(/C=c2\sc3nc(-c4cccc(S(=O)(=O)F)c4)cn3c2=O)cc(Cl)c1O [Example 152, 3-{2-[1-(3-Chloro-4-hydroxy-5-methoxy-phenyl)-meth-(Z)-ylidene]-3-oxo-2,3-dihydro-imidazo[2,1-b]thiazol-6-yl}-benzenesulfonyl fluoride] | 7 | 19
